Experimental data from publication PMC3574212 (Journal of medicinal chemistry, 2013).
pIC50: −log10 of the molar value. Where a name gives a salt, the structure may show the parent alone. Values belong to the compound of their own block, whether it stands above or below them.

What was measured:
EPAC2 = molecular target: T1, EPAC2 (Mus musculus, UniProt Q9EQZ6); assay: 8-NBD-cAMP competition binding assay; settings: for Relative Potency (RA): RA = IC50, cAMP/ IC50, compound; for EPAC2 inhibitory activity (in words): 8-NBD-cAMP competition
T1 sequence (Q9EQZ6 1-1011): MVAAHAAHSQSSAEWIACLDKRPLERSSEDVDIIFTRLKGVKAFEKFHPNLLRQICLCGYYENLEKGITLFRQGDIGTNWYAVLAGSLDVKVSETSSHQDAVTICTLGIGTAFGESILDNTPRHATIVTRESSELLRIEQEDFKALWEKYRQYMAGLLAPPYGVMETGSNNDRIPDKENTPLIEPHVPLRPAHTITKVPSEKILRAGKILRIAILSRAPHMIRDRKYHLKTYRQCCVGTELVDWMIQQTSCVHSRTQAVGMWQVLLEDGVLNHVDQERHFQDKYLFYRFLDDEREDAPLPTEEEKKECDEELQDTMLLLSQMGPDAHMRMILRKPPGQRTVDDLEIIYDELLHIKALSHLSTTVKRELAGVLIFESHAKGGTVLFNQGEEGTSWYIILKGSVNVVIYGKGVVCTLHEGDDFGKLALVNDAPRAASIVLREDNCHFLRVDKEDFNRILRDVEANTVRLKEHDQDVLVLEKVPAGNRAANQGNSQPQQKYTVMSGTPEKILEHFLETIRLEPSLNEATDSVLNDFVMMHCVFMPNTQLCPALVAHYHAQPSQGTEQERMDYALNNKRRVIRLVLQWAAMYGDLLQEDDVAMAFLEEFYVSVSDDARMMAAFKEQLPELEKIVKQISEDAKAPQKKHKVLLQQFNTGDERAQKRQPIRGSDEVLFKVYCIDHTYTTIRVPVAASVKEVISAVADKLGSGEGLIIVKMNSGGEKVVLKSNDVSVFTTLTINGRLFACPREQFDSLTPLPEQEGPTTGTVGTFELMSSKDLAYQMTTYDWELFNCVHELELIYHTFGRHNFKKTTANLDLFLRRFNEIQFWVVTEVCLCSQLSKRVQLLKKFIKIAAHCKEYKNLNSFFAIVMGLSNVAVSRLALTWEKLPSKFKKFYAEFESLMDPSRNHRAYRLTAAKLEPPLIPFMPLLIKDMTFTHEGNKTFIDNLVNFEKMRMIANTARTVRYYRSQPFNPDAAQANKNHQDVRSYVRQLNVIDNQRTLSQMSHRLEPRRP

type I PKA holoenzyme = assay: Counter screening assay, type I PKA holoenzyme kinase activity; assay type: biochemical; settings: 25 µM compound, 0.1 mM cAMP
type II PKA holoenzyme = assay: Counter screening assay, type II PKA holoenzyme kinase activity; assay type: biochemical; settings: 25 µM compound, 0.1 mM cAMP

SMILES: Cc1cc(C)c(S(=O)(=O)c2cc(C)c(C)cc2C)c(C)c1 [Compound 5a, 1,3,5-Trimethyl-2-(2,4,5-trimethylbenzenesulfonyl)benzene]
Relative Potency (RA) (EPAC2): 57.1

SMILES: CCCCCc1ccc(S(=O)(=O)c2c(C)cc(C)cc2C)cc1 [Compound 5b, 1,3,5-Trimethyl-2-(4-pentylbenzenesulfonyl)benzene]
pIC50 (EPAC2): < 3.52 | Relative Potency (RA) (EPAC2): <0.13

SMILES: Cc1cc(C)c(S(=O)(=O)c2ccc(C3CCCCC3)cc2)c(C)c1 [Compound 5c, 2-(4-Cyclohexylbenzenesulfonyl)-1,3,5-trimethylbenzene]
pIC50 (EPAC2): < 3.52 | Relative Potency (RA) (EPAC2): <0.13

SMILES: Cc1cc(C)c(S(=O)(=O)c2ccc(I)cc2)c(C)c1 [Compound 8a, 2-(4-Iodobenzenesulfonyl)-1,3,5-trimethylbenzene]
Relative Potency (RA) (EPAC2): 10

SMILES: COc1ccc(S(=O)(=O)c2c(C)cc(C)cc2C)cc1 [Compound 8b, 2-(4-Methoxybenzenesulfonyl)-1,3,5-trimethylbenzene]
Relative Potency (RA) (EPAC2): 21.1

SMILES: Cc1cc(C)c(S(=O)(=O)c2ccc(-c3ccc(F)nc3)cc2)c(C)c1 [Compound 9, 2-Fluoro-5-[4-(2,4,6-trimethylbenzenesulfonyl)phenyl]pyridine]
pIC50 (EPAC2): < 3.52 | Relative Potency (RA) (EPAC2): <0.13

SMILES: Cc1cc(C)c(S(=O)(=O)c2ccc(O)cc2)c(C)c1 [Compound 10, 4-(2,4,6-Trimethylbenzenesulfonyl)phenol]
Relative Potency (RA) (EPAC2): 3.0

SMILES: Cc1cc(C)c(S(=O)(=O)c2ccc(OC3CCCCC3)cc2)c(C)c1 [Compound 11a, 2-(4-Cyclohexyloxybenzenesulfonyl)-1,3,5-trimethylbenzene]
pIC50 (EPAC2): < 3.52 | Relative Potency (RA) (EPAC2): <0.13

SMILES: Cc1cc(C)c(S(=O)(=O)c2ccc(OC3CCN(C(=O)OC(C)(C)C)CC3)cc2)c(C)c1 [Compound 11b, 4-[4-(2,4,6-Trimethylbenzenesulfonyl)phenoxy]-piperidine-1-carboxylic acid tert-butyl ester]
pIC50 (EPAC2): < 3.52 | Relative Potency (RA) (EPAC2): <0.13

SMILES: Cc1cc(C)c(S(=O)(=O)c2ccc(OC3CCNCC3)cc2)c(C)c1 [Compound 11c, 4-[4-(2,4,6-Trimethylbenzenesulfonyl)phenoxy]piperidine]
pIC50 (EPAC2): < 3.52 | Relative Potency (RA) (EPAC2): <0.13

SMILES: Cc1cc(C)c(S(=O)(=O)c2ccc(OCCN)cc2)c(C)c1 [Compound 11d, 2-[4-(2,4,6-Trimethylbenzenesulfonyl)phenoxy]ethylamine]
pIC50 (EPAC2): < 3.52 | Relative Potency (RA) (EPAC2): <0.13

SMILES: Cc1ccc(Nc2c(C)cc(C)cc2C)cc1 [Compound 14a, p-Tolyl-(2,4,6-trimethylphenyl)amine]
Relative Potency (RA) (EPAC2): 10.5

SMILES: Cc1cc(C)c(Nc2cc(Cl)cc(Cl)c2)c(C)c1 [Compound 14b, (3,5-Dichlorophenyl)-(2,4,6-trimethylphenyl)amine]
Relative Potency (RA) (EPAC2): 44.4

SMILES: Cc1cc(C)c(Nc2nc(C)c(C)s2)c(C)c1 [Compound 17, (4,5-Dimethylthiazol-2-yl)-(2,4,6-trimethylphenyl)amine]
pIC50 (EPAC2): < 3.52 | EPAC2 inhibitory activity (in words) (EPAC2): no activity | Relative Potency (RA) (EPAC2): <0.13

SMILES: CCc1cccn1S(=O)(=O)c1ccc(C)cc1 [Compound 20b, 2-Ethyl-1-(toluene-4-sulfonyl)-1H-pyrrole]
Relative Potency (RA) (EPAC2): 10

SMILES: CCc1cccn1S(=O)(=O)c1ccc(OC)cc1 [Compound 20c, 2-Ethyl-1-(4-methoxybenzenesulfonyl)-1H-pyrrole]
Relative Potency (RA) (EPAC2): 5

SMILES: CCc1cccn1S(=O)(=O)c1ccc(C(F)(F)F)cc1 [Compound 20e, 2-Ethyl-1-(4-trifluoromethyl-benzenesulfonyl)-1H-pyrrole]
pIC50 (EPAC2): < 3.52 | EPAC2 inhibitory activity (in words) (EPAC2): dramatic loss of EPAC inhibitory activity | Relative Potency (RA) (EPAC2): <0.13

SMILES: CCc1cccn1S(=O)(=O)c1ccccc1C [Compound 20f, 2-Ethyl-1-(toluene-2-sulfonyl)-1H-pyrrole]
Relative Potency (RA) (EPAC2): 7.5

SMILES: O=S(=O)(NCCNC/C=C/c1ccc(Br)cc1)c1cccc2cnccc12 [Compound H89, N-[2-[[3-(4-bromophenyl)-2-propenyl]amino]ethyl]-5-isoquinolinesulfonamide dihydrochloride, reference compound]
Effect on cAMP-induced type I PKA holoenzyme activation (type I PKA holoenzyme): blocked the type I or II PKA activities completely | Effect on cAMP-induced type II PKA holoenzyme activation (type II PKA holoenzyme): blocked the type I or II PKA activities completely

Further lines, results first:

Relative Potency (RA) (EPAC2): 8.5
SMILES: CCc1cccn1S(=O)(=O)c1cc(C)cc(C)c1 [Compound 20g, 1-(3,5-Dimethylbenzenesulfonyl)-2-ethyl-1H-pyrrole]

Relative Potency (RA) (EPAC2): 30.8
SMILES: CCc1cccn1S(=O)(=O)c1ccc(C)cc1C [Compound 20h, 1-(2,4-Dimethylbenzenesulfonyl)-2-ethyl-1H-pyrrole]

EPAC2 inhibitory activity (in words) (EPAC2): almost retained activity | Relative Potency (RA) (EPAC2): 33.3
SMILES: Cc1cc(C)c(S(=O)(=O)n2ccc3ccccc32)c(C)c1 [Compound 22a, 1-(2,4,6-Trimethylbenzenesulfonyl)-1H-indole]

pIC50 (EPAC2): < 3.52 | EPAC2 inhibitory activity (in words) (EPAC2): dramatic loss of activity | Relative Potency (RA) (EPAC2): <0.13
SMILES: COC(=O)c1ccc2c(ccn2S(=O)(=O)c2c(C)cc(C)cc2C)c1 [Compound 22b, 1-(2,4,6-Trimethylbenzenesulfonyl)-1H-indole-5-carboxylic acid methyl ester]

EPAC2 inhibitory activity (in words) (EPAC2): less active with a moderate potency | Relative Potency (RA) (EPAC2): 3.7
SMILES: Cc1cc(C)c(S(=O)(=O)n2ccc3cc(C(=O)O)ccc32)c(C)c1 [Compound 22c, 1-(2,4,6-Trimethylbenzenesulfonyl)-1H-indole-5-carboxylic acid]

Relative Potency (RA) (EPAC2): 10.5
SMILES: Cc1cc(C)c(S(=O)(=O)n2ccc3ncccc32)c(C)c1 [Compound 24a, 1-(2,4,6-Trimethylbenzenesulfonyl)-1H-pyrrolo[3,2-b]pyridine]

Relative Potency (RA) (EPAC2): 4.5
SMILES: Cc1cc(C)c(S(=O)(=O)n2ccc3cnccc32)c(C)c1 [Compound 24b, 1-(2,4,6-Trimethylbenzenesulfonyl)-1H-pyrrolo[3,2-c]pyridine]

Relative Potency (RA) (EPAC2): 3.2
SMILES: Cc1cc(C)c(S(=O)(=O)n2ccc3ccncc32)c(C)c1 [Compound 24c, 1-(2,4,6-Trimethylbenzenesulfonyl)-1H-pyrrolo[2,3-c]pyridine]

EPAC2 inhibitory activity (in words) (EPAC2): almost retained activity | Relative Potency (RA) (EPAC2): 16.7
SMILES: Cc1cc(C)c(S(=O)(=O)n2ccc3cccnc32)c(C)c1 [Compound 24d, 1-(2,4,6-Trimethylbenzenesulfonyl)-1H-pyrrolo[2,3-b]pyridine]
